Experimental data from ChEMBL document CHEMBL5316327, “Design and Synthesis of Orally Active Quinolyl Pyrazinamides as Sigma 2 Receptor Ligands for the Treatment of Pancreatic Cancer” (J Med Chem, 2023).
Active and inactive are the calls of the source. No cut-off for these calls is given here.

Key:
[1] = system: MIA PaCa-2; assay: Induction of apoptosis in human MIA PaCa-2 cells assessed as late apoptotic cells at 5.0 uM measured after 48 hrs by Annexin V-Alexa Fluor 488/propidium iodide staining based flow cytometry (reference value: 6.63%); format: functional
[2] = system: MIA PaCa-2; assay: Induction of cell cycle arrest in human MIA PaCa-2 cells assessed as accumulation of cells in G0/G1 phase at 10 uM measured after 24 hrs by propidium iodide staining-based flow cytometric analysis (reference value: 53%); format: functional
[3] = Cytotoxicity against HFF-1 cells measured after 72 hrs by MTT assay; format: toxicity, cell-based; conditions: human
[4] = system: MIA PaCa-2; assay: Synergistic ferroptosis activity in human MIA-PaCa-2 cells at upto 1 uM measured after 7 days in presence of chloroquine by crystal violet staining based analysis; format: functional, cell-based; conditions: time 7.0 day
[5] = system: HCT-116; assay: Induction of apoptosis in human HCT-116 cells assessed as viable cells at […] measured after 48 hrs by Annexin V-Alexa Fluor 488/propidium iodide staining based flow cytometry (reference value: 79.69%); format: functional; conditions: dose 2.5 µM, read-out: Activity
[6] = system: HCT-116; assay: Induction of cell cycle arrest in human HCT-116 cells assessed as accumulation of cells in G0/G1 phase at 10 uM measured after 24 hrs by propidium iodide staining-based flow cytometric analysis (reference value: 43%); format: functional
[7] = system: MIA PaCa-2; assay: Inhibition of colony formation in human MIA PaCa-2 cells at 0.04 to 30 uM pretreated with ammonium tetrathiomolybdate for 4 hrs followed by compound addition and measured after 6 days; format: functional, cell-based; conditions: dose 0.04-30 µM, time 6.0 day
[8] = system: MIA PaCa-2; assay: Synergistic cytotoxicity against human MIA PaCa-2 cells at upto 1 uM measured after 7 days in presence of copper chloride by crystal violet staining based analysis; format: functional, cell-based; conditions: time 7.0 day
[9] = system: MIA PaCa-2; assay: Induction of cell cycle arrest in human MIA PaCa-2 cells assessed as accumulation of cells in G2/M phase at […] measured after 24 hrs by propidium iodide staining-based flow cytometric analysis (reference value: 16%); format: functional; conditions: dose 2.5 µM
[10] = Solubility of the compound; format: physicochemical
[11] = system: HCT-116; assay: Induction of apoptosis in human HCT-116 cells assessed as early apoptotic cells at […] measured after 48 hrs by Annexin V-Alexa Fluor 488/propidium iodide staining based flow cytometry (reference value: 2.77%); format: functional; conditions: dose 2.5 µM
[12] = system: MIA PaCa-2; assay: Induction of apoptosis in human MIA PaCa-2 cells assessed as late apoptotic cells at […] measured after 48 hrs by Annexin V-Alexa Fluor 488/propidium iodide staining based flow cytometry (reference value: 6.63%); format: functional; conditions: dose 2.5 µM
[13] = system: MIA PaCa-2; assay: Synergistic cytotoxicity in human MIA PaCa-2 cells at upto 1 uM measured after 7 days in presence of doxorubicin by crystal violet staining based analysis; format: functional, cell-based; conditions: time 7.0 day
[14] = system: HCT-116; assay: Induction of apoptosis in human HCT-116 cells assessed as necrotic cells at […] measured after 48 hrs by Annexin V-Alexa Fluor 488/propidium iodide staining based flow cytometry (reference value: 9.06%); format: functional; conditions: dose 2.5 µM
[15] = system: HCT-116; assay: Induction of apoptosis in human HCT-116 cells assessed as early apoptotic cells at 10.0 uM measured after 48 hrs by Annexin V-Alexa Fluor 488/propidium iodide staining based flow cytometry (reference value: 2.77%); format: functional
[16] = system: MIA PaCa-2; assay: Additive cytotoxicity in human MIA PaCa-2 cells at upto 1 uM measured after 24 hrs in presence of roluperidone; format: functional, cell-based
[17] = system: HCT-116; assay: Synergistic cytotoxicity against human HCT-116 cells at upto 1 uM measured after 6 days in presence of gold acetate by crystal violet staining based analysis; format: functional, cell-based; conditions: time 6.0 day
[18] = system: MIA PaCa-2; assay: Induction of apoptosis in human MIA PaCa-2 cells assessed as viable cells at 1.0 uM measured after 48 hrs by Annexin V-Alexa Fluor 488/propidium iodide staining based flow cytometry (reference value: 82.23%); format: functional; conditions: read-out: Activity
[19] = system: MIA PaCa-2; assay: Induction of cell cycle arrest in human MIA PaCa-2 cells assessed as accumulation of cells in G2/M phase at 1 uM measured after 24 hrs by propidium iodide staining-based flow cytometric analysis (reference value: 16%); format: functional
[20] = system: HCT-116; assay: Induction of cell cycle arrest in human HCT-116 cells assessed as accumulation of cells in G2/M phase at 1 uM measured after 24 hrs by propidium iodide staining-based flow cytometric analysis (reference value: 10%); format: functional
[21] = system: HCT-116; assay: Induction of apoptosis in human HCT-116 cells assessed as early apoptotic cells at 5.0 uM measured after 48 hrs by Annexin V-Alexa Fluor 488/propidium iodide staining based flow cytometry (reference value: 2.77%); format: functional
[22] = system: MIA PaCa-2; assay: Additive cytotoxicity against human MIA PaCa-2 cells at upto 1 uM measured after 7 days in presence of ammonium tetrathiomolybdate by crystal violet staining based analysis; format: functional, cell-based; conditions: time 7.0 day
[23] = system: MIA PaCa-2; assay: Induction of apoptosis in human MIA PaCa-2 cells assessed as necrotic cells at 5.0 uM measured after 48 hrs by Annexin V-Alexa Fluor 488/propidium iodide staining based flow cytometry (reference value: 7.03%); format: functional
[24] = target: 5-hydroxytryptamine receptor 1B (Homo sapiens, UniProt P28222); assay: Binding affinity to 5-HT1B receptor (unknown origin) assessed as inhibition constant
Sequence of 5-hydroxytryptamine receptor 1B (P28222 whole entry): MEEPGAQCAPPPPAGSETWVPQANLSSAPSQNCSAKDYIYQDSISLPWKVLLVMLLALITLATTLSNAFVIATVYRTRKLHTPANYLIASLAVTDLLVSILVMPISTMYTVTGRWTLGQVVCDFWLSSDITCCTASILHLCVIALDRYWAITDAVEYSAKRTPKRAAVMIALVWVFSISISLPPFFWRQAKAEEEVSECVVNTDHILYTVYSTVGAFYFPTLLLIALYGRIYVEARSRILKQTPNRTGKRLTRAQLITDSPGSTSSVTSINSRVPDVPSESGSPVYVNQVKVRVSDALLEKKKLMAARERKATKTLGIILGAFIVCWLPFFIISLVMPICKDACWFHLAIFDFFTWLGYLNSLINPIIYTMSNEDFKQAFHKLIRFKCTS

[25] = target: Beta-1 adrenergic receptor (Homo sapiens, UniProt P08588); assay: Binding affinity to beta1 receptor (unknown origin) assessed as inhibition constant
Sequence of Beta-1 adrenergic receptor (P08588 whole entry): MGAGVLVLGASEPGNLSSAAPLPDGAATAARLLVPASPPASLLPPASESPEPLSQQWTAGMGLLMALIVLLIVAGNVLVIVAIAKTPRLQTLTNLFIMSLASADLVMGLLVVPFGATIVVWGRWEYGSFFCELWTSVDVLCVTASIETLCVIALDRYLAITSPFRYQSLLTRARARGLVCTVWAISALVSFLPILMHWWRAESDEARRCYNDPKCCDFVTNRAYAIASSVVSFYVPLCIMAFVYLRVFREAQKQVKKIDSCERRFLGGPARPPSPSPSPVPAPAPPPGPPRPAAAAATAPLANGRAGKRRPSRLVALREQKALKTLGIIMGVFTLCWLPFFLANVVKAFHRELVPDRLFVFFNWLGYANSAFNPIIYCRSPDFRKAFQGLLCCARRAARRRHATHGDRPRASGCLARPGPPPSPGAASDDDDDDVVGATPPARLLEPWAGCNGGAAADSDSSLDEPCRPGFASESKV

[26] = system: MIA PaCa-2; assay: Synergistic cytotoxicity in human MIA PaCa-2 cells at upto 1 uM measured after 7 days in presence of cisplatin by crystal violet staining based analysis; format: functional, cell-based; conditions: time 7.0 day
[27] = system: MIA PaCa-2; assay: Induction of cell cycle arrest in human MIA PaCa-2 cells assessed as accumulation of cells in G0/G1 phase at 5 uM measured after 24 hrs by propidium iodide staining-based flow cytometric analysis (reference value: 53%); format: functional
[28] = system: MIA PaCa-2; assay: Induction of apoptosis in human MIA PaCa-2 cells assessed as viable cells at 10.0 uM measured after 48 hrs by Annexin V-Alexa Fluor 488/propidium iodide staining based flow cytometry (reference value: 82.23%); format: functional; conditions: read-out: Activity
[29] = system: MIA PaCa-2; assay: Induction of apoptosis in human MIA PaCa-2 cells assessed as necrotic cells at 1.0 uM measured after 48 hrs by Annexin V-Alexa Fluor 488/propidium iodide staining based flow cytometry (reference value: 7.03%); format: functional
[30] = system: MIA PaCa-2; assay: Induction of apoptosis in human MIA PaCa-2 cells assessed as late apoptotic cells at 10.0 uM measured after 48 hrs by Annexin V-Alexa Fluor 488/propidium iodide staining based flow cytometry (reference value: 6.63%); format: functional
[31] = system: PANC-1; assay: Induction of autophagy in human PANC-1 cells assessed as upregulation of LC-3 level at 1 to 10 uM measured after 24 hrs; format: functional, cell-based; conditions: dose 1-10 µM
[32] = system: MIA PaCa-2; assay: Synergistic cytotoxicity in human MIA PaCa-2 cells at upto 1 uM measured after 7 days in presence of vemurafenib by crystal violet staining based analysis; format: functional, cell-based; conditions: time 7.0 day
[33] = system: MIA PaCa-2; assay: Induction of apoptosis in human MIA PaCa-2 cells assessed as necrotic cells at 10.0 uM measured after 48 hrs by Annexin V-Alexa Fluor 488/propidium iodide staining based flow cytometry (reference value: 7.03%); format: functional
[34] = Toxicity in C57BL/6 mouse assessed as effect on body weight at 30 mg/kg, po administered for 32 days and measured on day 4,7 in presence of copper sulfate; format: organism-based; conditions: in vivo, 768 h, time 32 day
[35] = target: 5-hydroxytryptamine receptor 2C (Homo sapiens, UniProt P28335); assay: Binding affinity to 5-HT2C receptor (unknown origin) assessed as inhibition constant
Sequence of 5-hydroxytryptamine receptor 2C (P28335 whole entry): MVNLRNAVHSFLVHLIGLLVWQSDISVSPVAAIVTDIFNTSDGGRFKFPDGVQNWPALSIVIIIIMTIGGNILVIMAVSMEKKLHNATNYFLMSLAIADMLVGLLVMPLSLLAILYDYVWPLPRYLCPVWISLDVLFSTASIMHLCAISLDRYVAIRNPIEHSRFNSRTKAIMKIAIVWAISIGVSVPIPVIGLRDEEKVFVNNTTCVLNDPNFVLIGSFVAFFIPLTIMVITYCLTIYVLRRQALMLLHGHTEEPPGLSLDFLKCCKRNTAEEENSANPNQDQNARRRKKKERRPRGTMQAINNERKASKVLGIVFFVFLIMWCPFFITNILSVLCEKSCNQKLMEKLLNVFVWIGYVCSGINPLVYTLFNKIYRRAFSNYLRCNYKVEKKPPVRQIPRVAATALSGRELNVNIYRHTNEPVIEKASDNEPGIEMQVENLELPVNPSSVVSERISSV

SMILES: CCN(CC)CCCC(C)Nc1cnc(C(=O)Nc2ccc(Cl)c3cccnc23)cn1 (stereo not given)
- Activity [1]: 40.03%
- Activity [2]: 69%
- IC50 at 72 h [3]: 8 µM
- Activity [4]: Active
- viability at […] [5]: 68.1%
- Activity [6]: 57%
- inhibition [7]: inactive
- Activity [8]: Active
- Activity [9]: 16%
- solubility [10]: > 5000 µg/mL
- Activity [11]: 8.77%
- Activity [12]: 25.72%
- Activity [13]: inactive
- Activity [14]: 2.87%
- Activity [15]: 16.72%
- Activity [16]: Active
- Activity [17]: inactive
- viability at 1 µM [18]: 54.6%
- Activity [19]: 13%
- Activity [20]: 25%
- Activity [21]: 12.38%
- Activity [22]: inactive
- Activity [23]: 5.32%
- Ki [24]: 0.646 µM
- Ki [25]: 6.35 µM
- Activity [26]: inactive
- Activity [27]: 61%
- viability at 10 µM [28]: 6.27%
- Activity [29]: 3.16%
- Activity [30]: 53.96%
- Activity [31]: Active
- Activity [32]: inactive
- Activity [33]: 7.21%
- Activity [34]: Toxic
- Ki [35]: 0.471 µM
